The term ΔTm denotes the change in melting temperature against a reference sample. Usually IC50 stands for the point on the concentration scale where inhibition reaches its midpoint.

Experiment [1] concerns the target T1, TAOK2 (Rattus norvegicus, UniProt Q9JLS3).
T1 construct: made in house
T1 sequence (Q9JLS3 1-320 limits assumed): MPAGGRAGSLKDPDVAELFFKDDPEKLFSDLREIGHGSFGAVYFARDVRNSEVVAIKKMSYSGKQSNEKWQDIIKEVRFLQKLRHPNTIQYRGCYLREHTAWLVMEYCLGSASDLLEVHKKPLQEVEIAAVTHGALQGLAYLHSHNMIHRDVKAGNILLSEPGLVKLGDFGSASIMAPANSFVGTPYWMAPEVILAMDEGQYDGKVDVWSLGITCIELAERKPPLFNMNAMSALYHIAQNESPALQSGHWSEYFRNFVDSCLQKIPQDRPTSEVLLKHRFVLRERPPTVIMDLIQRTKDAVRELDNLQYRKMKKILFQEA
Description: Differential scanning fluorimetry (DSF) binding assay against TAOK2. The settings on record: DSF melt temperature shift of TAOK2, 5 μM TAOK2, compound 1 μM. As to the method:
(§1) Differential scanning fluorimetry binding assays of selected compounds against TAOK2 were conducted to measure strength of compound binding. A solution of 5 μM TAOK2, 50 mM MgCl2, 50 mM HEPES pH 7.5, and 2.5x SyproOrange(Life Technologies) was made. Compound was added to a final concentration of 1 μM. 25 μl of the reaction solution was added to the wells of a Biorad Multiplate 96 wellclear PCR plate. The plate was covered with a Biorad Microseal ‘B’ seal. Plates were read in a Biorad CFX96 Real-Time PCR system. The temperature was increased from 4° C. to 80° C., with fluorescence measurements being taken every 0.5° C. in the 6-FAM Fluorescein channel. The fluorescence response to heat curve was fit to a binding isotherm in order to determine the inflection point, which was taken as the melt temperature (Tm).
The prevalence of multiple heterocycles in the compounds is reflective of the composition of the screen (described in Methods in Supplemental Material). These 13 compounds were purchased from Chembridge Inc. and ChemDiv Inc. for measurement of direct binding using Differential Scanning Fluorimetry (DSF). DSF measures protein melt temperature (Tm) with a lipophilic dye (SyproOrange). As the temperature of the solution is increased, measurements of dye fluorescence are taken. When the protein begins to denature, hydrophobic regions in the protein are exposed, and the dye is able to bind. This binding insulates the dye from the surrounding water, reducing quenching effects and allowing fluorescence. Binding of small molecules to protein has a stabilizing effect, and this is seen by an increase in melt temperature (Table 1). The ΔTm values ranged from 3.0 to −0.6° C. The three compounds with the highest positive shifts were SW034538, SW163112, and SW083688, with 3° C., 2.2° C., and 2° C. shifts, respectively.

In experiment [2] the target is T1, TAOK2. Nature of the experiment: Kinase-Glo high-throughput screen / re-screen of TAOK2 activity (MBP substrate). Type of experiment: biochemical. The settings on record: estimate from HTS re-screen at 1, 3.3 and 10 μM. As to the method: TAOK2 activity was screened in a high-throughput fashion using Kinase-Glo (Promega). A 20 μL, solution of 50 mM HEPES pH 7.4, 50 mM MgCl2, 1.27 mg/ml MBP and 0.005 mg/ml TAOK2 was added to each well of a 384 well Corning plate using a Biotek MultiFlo dispenser. 0.2 μl of compound (columns 3 to 22, 50 μM), DMSO negative control (columns 2, 23, and 24), or staurosporine positive control (column 1, 43.4 μM) were then added to each well with a Biomek Liquid handler. 10 μl of 50 μg/ml ATP solution was added to each well with a Labsystems Multidrop384. The plates were incubated at RT for 100 minutes. 20 μl Kinase Glo (Promega) was added to each well, and allowed to incubate for 10minutes under agitation. Luminescence was read on an Envision Multilabel plate reader.
After cherry picking primary hits, the selected compounds were assayed in a limited dose-response format (10, 3.3, and 1 μM) in triplicate using the primary enzymatic assay for TAOK2. The data for each assay well was normalized to the neutral controls. The normalized activity values (replicates) for each compound in each assay were then condensed to a single value (condensed activity) using the “Robust Condensing” method in Genedata Screener®. The condensed activity is the most representative single value of the triplicates. In general, the triplicates were pre-condensed into a pair of values as follows:
In order to study the relationship between TAOK2 and both cancer and autophagy, a high-throughput screen was performed using a 200,000 compound library to discover novel small-molecule kinase inhibitors (FIG. 1A-D). Phosphorylation reactions were performed in a 384 well format against the generic kinase substrate Myelin Basic Protein (MBP) with the addition of compound. Kinase-Glo (Promega) was then added to each well to detect remaining ATP concentration. Thus, inhibitory compounds would decrease TAOK2 activity, which would increase both remaining ATP concentration and luminescence in those wells.
After the initial screen, 1645 compounds were identified with inhibition greater than three σ above the mean DMSO control (FIG. 1A). The Z′ factor of the initial screen across all plates was 0.77, indicating high significance (FIG. 1B). These compounds were then re-screened in triplicate under the same conditions, with the compounds being assayed at three concentrations (1 μM, 3.3 μM, and 10 μM, FIG. 1C, D). 432 compounds were identified after the re-screen with average inhibitions greater than 10 sigma at the 10 μM concentration. The Z′ factor of the confirmation screen was 0.52, again indicating high significance.

Experiment [3] has as its target p38 (Homo sapiens, UniProt Q16539). Description: DSF against p38 (selectivity panel of MAPK cascade members). The settings on record: for ΔΔTm (p38): difference between the TAOK2 ΔTm and that of p38, DSF. The class given is binding. As to the method: as §1
(§2) The difference between the TAOK2 ΔTm and that of p38 and ASK1 was determined. […] The majority of the other compounds were also preferentially inhibitory toward TAOK2. Of the 13 compounds, SW034538, SW172006 and SW083688 were cross-verified for selectivity by performing a specificity screen against 45 kinases commercially at Eurofins Cerep, Inc. (FIG. 3).

Experiment [4] has as its target T2, ASK1 (Homo sapiens, UniProt Q99683).
T2 sequence (Q99683 1-1374): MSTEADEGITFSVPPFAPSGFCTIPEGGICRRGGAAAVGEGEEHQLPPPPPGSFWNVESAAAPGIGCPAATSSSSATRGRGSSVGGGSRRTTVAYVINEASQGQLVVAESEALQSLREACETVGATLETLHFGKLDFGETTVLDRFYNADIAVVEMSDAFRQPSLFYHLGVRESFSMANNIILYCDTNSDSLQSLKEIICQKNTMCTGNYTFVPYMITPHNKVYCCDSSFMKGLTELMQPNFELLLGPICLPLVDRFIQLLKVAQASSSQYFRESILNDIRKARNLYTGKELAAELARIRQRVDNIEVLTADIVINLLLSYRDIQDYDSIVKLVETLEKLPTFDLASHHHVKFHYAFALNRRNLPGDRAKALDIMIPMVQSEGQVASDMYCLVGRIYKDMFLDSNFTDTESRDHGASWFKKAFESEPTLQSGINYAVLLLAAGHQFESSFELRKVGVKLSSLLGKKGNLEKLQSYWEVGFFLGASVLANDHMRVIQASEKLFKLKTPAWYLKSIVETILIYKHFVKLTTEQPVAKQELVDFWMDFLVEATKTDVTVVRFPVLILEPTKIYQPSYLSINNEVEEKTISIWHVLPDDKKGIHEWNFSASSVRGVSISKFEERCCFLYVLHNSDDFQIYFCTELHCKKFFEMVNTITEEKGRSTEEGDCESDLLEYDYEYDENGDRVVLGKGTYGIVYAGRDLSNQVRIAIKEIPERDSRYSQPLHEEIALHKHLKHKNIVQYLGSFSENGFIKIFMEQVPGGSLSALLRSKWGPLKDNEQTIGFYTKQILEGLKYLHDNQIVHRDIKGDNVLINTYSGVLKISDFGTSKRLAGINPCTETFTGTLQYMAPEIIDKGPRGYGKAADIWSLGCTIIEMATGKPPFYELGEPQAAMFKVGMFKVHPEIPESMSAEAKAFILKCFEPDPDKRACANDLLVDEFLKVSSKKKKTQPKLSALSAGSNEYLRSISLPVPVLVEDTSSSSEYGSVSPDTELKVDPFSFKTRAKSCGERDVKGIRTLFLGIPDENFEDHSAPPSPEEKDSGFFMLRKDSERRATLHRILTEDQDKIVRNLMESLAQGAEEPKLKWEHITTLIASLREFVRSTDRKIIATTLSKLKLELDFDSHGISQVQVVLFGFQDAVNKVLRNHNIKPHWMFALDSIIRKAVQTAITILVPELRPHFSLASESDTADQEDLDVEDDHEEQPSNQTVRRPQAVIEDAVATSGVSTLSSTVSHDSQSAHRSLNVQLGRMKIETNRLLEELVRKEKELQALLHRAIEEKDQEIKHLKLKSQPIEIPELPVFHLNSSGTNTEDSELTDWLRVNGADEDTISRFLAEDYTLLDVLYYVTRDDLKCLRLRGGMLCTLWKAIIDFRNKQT
Description: DSF against ASK1 (selectivity panel of MAPK cascade members). The class given is binding. The settings on record: difference between the TAOK2 ΔTm and that of ASK1, DSF. As to the method: as §1, §2

Sequence of p38 (Q16539 whole entry): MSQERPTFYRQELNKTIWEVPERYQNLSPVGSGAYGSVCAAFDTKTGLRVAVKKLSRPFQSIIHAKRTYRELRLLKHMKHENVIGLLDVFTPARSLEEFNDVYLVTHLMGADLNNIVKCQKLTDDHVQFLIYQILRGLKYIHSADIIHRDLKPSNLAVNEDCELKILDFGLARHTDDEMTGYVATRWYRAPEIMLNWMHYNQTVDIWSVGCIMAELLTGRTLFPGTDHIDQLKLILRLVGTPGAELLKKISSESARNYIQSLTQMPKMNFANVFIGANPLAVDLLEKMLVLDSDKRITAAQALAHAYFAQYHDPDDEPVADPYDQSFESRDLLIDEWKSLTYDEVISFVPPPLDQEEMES

For `CCc1ccccc1Nc1ncc(-c2sc(NC(C)=O)nc2C)s1` [SW034513], the ΔTm in experiment [1] is 0.1 °C. The IC50 in experiment [2] is 3000 nM.
Take `Cc1cccc(NC(=S)N/N=C/c2c[nH]c3ccccc23)c1` [SW109820]: the thermal shift (ΔTm) in experiment [1] amounted to 0.5 °C. The IC50 in experiment [2] was 1000 nM.
Turning to `O=C(NCC1COc2ccccc2O1)c1ccc2c(=O)n(Cc3ccco3)c(=S)[nH]c2c1` (stereo not shown) [SW083604], in experiment [3] (DSF cross-reactivity with p38), the “ΔTm with respect to p38” value is 0.9 °C. In experiment [3], the “ΔΔTm (p38)” value turned out to be 0.3 °C. Moreover, the shift in melting temperature (ΔTm) in experiment [1] was found to be 1.2 °C. In addition, the IC50 in experiment [2] was 600 nM. Moreover, in experiment [4], the “ΔΔTm (ASK1)” value is 1.1 °C.
Turning to `Cc1ccc(NCCCC(=O)N/N=C/c2cc(Br)cc(Br)c2O)cc1` [SW106178], the “ΔΔTm (p38)” value in experiment [3] stood at 1.3 °C. For the same compound, the thermal shift (ΔTm) in experiment [1] turned out to be 1.6 °C. For the same compound, the IC50 in experiment [2] was 6000 nM. Further, the “ΔΔTm (ASK1)” value in experiment [4] came to 1.2 °C.

The values are drawn from patent US20170340636A1, “COMPOSITIONS AND METHODS FOR INHIBITION OF AUTOPHAGY” (Board of Regents, The University of Texas System, priority 2016, published 2017).
